Earlier results on two molecules are cited in patent US9682147B2, “Self-preserved oil dispersions comprising boric acid” (SANTEN SAS, priority 2012, dated 2017).

One data set deals with corneal cells. The following applies: boric acid used in cleaning contact lenses solutions.
Data set [1] relates to corneal and epithelial cells.
For data set [2] the following is noted: solution comprising 1.2% w/w of borate.

Read-outs that look alike come from different tables or passages of the source.

`OB(O)O` [boric acid]: the Corneal cytotoxicity result in the data set with corneal cells is given as “strong corneal cytotoxicity”. The “Toxicity to corneal and epithelial cells” value in data set [1] (0.5% to 1% boric acid) was “toxic”; in data set [1] (concentration of 0.1% boric acid), “safe”.

Turning to borate, in data set [2], the Antimicrobial activity entry was “some antimicrobial activity” and the “Criteria for antimicrobial effectiveness given by USP” value was “not sufficient to meet the criteria”.
